# Source: patent publication US9333202B2, “Non-retinoid antagonists for treatment of age-related macular degeneration and stargardt disease” (THE TRUSTEES OF COLUMBIA UNIVERSITY IN THE CITY OF NEW YORK, priority 2012, dated 2016)
# Tested on: lipofuscin bisretinoids (A2E, A2-DHP-PE, atRAL di-PE)
# Assay: Bisretinoid (lipofuscin fluorophore) levels in eyecups of Abca4−/− mice by HPLC
# Format: in vivo, mouse
# Description: The Abca4−/− mouse model manifests accelerated accumulation of lipofuscin in the RPE and is considered a pre-clinical efficacy model for a drug reducing lipofuscin accumulation. […] There was approximately a 70% reduction in the serum RBP4 level in treated animals (FIG. 11). Additionally, it was discovered that that the levels of A2E/isoA2E and other bisretinoids were reduced by approximately 50% in treated mice (FIG. 12).
# Abca4/Abcr null mutant mice (albino) homozygous for Rpe65-Leu450 are bred genotyped and housed. Posterior eyecups of mice and RPE/choroids harvested from human donor eyes (National Disease Research Interchange, Philadelphia Pa.) are homogenized in phosphate buffered saline (PBS) using a glass tissue grinder and extracted in chloroform/methanol (2:1). Extracts are subsequently filtered through cotton and passed through a reverse phase cartridge (C8 Sep-Pak, Millipore) with 0.1% TFA (Aldrich Chemical Company, Milwaukee, Wis.) in methanol. […] An Alliance system (Waters, Corp, Milford, Mass.) equipped with 2695 Separation Module, 2996 Photodiode Array Detector, a 2475 Multi λ Fluorescence Detector and operating with Empower® software is used for HPLC analysis. […] HPLC quantification is carried out using the Empower® software to determine peak areas. […] Molar quantity per murine eye is determined using calibration curves constructed from known concentrations of purified external standards and by normalizing to the ratio of the HPLC injection volume (10 μL) versus total extract volume. […]
# Following euthanasia, posterior eye cups were pooled and homogenized in PBS using a tissue grinder. […] For quantification of bisretinoids of RPE lipofuscin, a Waters Alliance 2695 HPLC system was employed with an Atlantis dC18 column (Waters, 4.6 mm×150 mm, 3 μm) and the following gradient of acetonitrile in water (containing 0.1% trifluoroacetic acid): 90 to 100% from 0 to 10 min and 100% acetonitrile from 10 to 20 min, with a flow rate of 0.8 mL/min with monitoring at 430 nm. […] Levels of bisretinoid were determined by reference to external standards of HPLC-purified compound. […]
# [1] = treated mice, oral 30 mg/kg (Example 3)
smiles,measurement,setting,value
"O=C(O)c1ccccc1NC(=O)N1CCC(c2ccccc2C(F)(F)F)CC1 [Compound 1, 2(4-(2-(trifluoromethyl)phenyl)piperidine-1-carboxamido)benzoic acid]",Effect on bisretinoid accumulation (in words),Abca4−/− mouse model of excessive lipofuscinogenesis,inhibits bisretinoid accumulation
same,Levels of A2-DHP-PE and atRAL di-PE,[1],also reduced
same,Reduction of levels of A2E/isoA2E and other bisretinoids,[1],approximately 50%
